Reference: the NIST ThermoML archive (doi:10.1021/je7005743)

Key:
[1] = excess molar enthalpy (molar enthalpy of mixing); xn = mol fraction of the nth substance listed; details: 303.15 K, 101 kPa, Liquid, Flow calorimetry
[2] = 298.15 K; 101.33 kPa; Liquid; Pycnometric method

C=COCCC [propyl vinyl ether] + CCO
[1]
Details	excess molar enthalpy [kcal/mol]
x1 = 0.0265	0.014
x1 = 0.0543	0.0284
x1 = 0.0836	0.0441
x1 = 0.1145	0.0602
x1 = 0.147	0.0766
x1 = 0.1814	0.0936
x1 = 0.2178	0.111
x1 = 0.2564	0.129
x1 = 0.2973	0.146
x1 = 0.3409	0.164
x1 = 0.3873	0.179
x1 = 0.4368	0.195
x1 = 0.4899	0.209
x1 = 0.5468	0.221
x1 = 0.608	0.229
x1 = 0.6741	0.233
x1 = 0.7456	0.227
x1 = 0.8231	0.207
x1 = 0.9076	0.157

CC(C)CC(C)(C)C [2,2,4-trimethylpentane]
Details	mass density [kg/m3]
[2]	687.91

CCCO [propan-1-ol]
Details	mass density [kg/m3]
[2]	799.94

CCCCO [butan-1-ol]
Details	mass density [kg/m3]
[2]	805.76

CCO [ethanol]
Details	mass density [kg/m3]
[2]	785.32

CCC(C)O (centres undefined) [butan-2-ol]
Details	mass density [kg/m3]
[2]	802.57

CC(C)O [propan-2-ol]
Details	mass density [kg/m3]
[2]	781.32

C=COCCC [propyl vinyl ether]
Details	mass density [kg/m3]
[2]	762.96

CC(C)CC(C)(C)C [2,2,4-trimethylpentane] + CCO
[1]
Details	excess molar enthalpy [kcal/mol]
x2 = 0.1291	0.13
x2 = 0.2383	0.152
x2 = 0.332	0.158
x2 = 0.4132	0.157
x2 = 0.4842	0.153
x2 = 0.5469	0.146
x2 = 0.6026	0.138
x2 = 0.6525	0.129
x2 = 0.6974	0.12
x2 = 0.738	0.11
x2 = 0.7749	0.1
x2 = 0.8086	0.0898
x2 = 0.8395	0.0797
x2 = 0.8679	0.069
x2 = 0.8942	0.0582
x2 = 0.9185	0.0473
x2 = 0.941	0.0357
x2 = 0.962	0.024
x2 = 0.9817	0.012

C=COCCC [propyl vinyl ether] + CC(C)CC(C)(C)C
[1]
Details	excess molar enthalpy [kcal/mol]
x1 = 0.0715	0.0253
x1 = 0.1398	0.0464
x1 = 0.2052	0.0635
x1 = 0.2678	0.0775
x1 = 0.3278	0.0878
x1 = 0.3853	0.0954
x1 = 0.4406	0.1
x1 = 0.4937	0.103
x1 = 0.5448	0.103
x1 = 0.5939	0.101
x1 = 0.6413	0.097
x1 = 0.6869	0.0917
x1 = 0.7309	0.0846
x1 = 0.7734	0.0758
x1 = 0.8144	0.0658
x1 = 0.854	0.0547
x1 = 0.8923	0.0418
x1 = 0.9294	0.0277
x1 = 0.9653	0.0138
